Results from patent US12543767B2, “Oral supplements containing enriched phenolic compound extracts combined with organic acid sodium salts, creatines and/or creatine salts” (Phenolics, LLC, priority 2021, dated 2026).
Values joined by “and” are separate entries in the source; they are usually repeats but may differ in a detail not shown here. Equal values may be shown once.

Experiments:
[1] = system: men; assay: Clinical study: fatigue test, 50 maximal unilateral isokinetic leg extensions, before and after 28 days of supplementation; assay type: in vivo; conditions: for Peak Torque: mean of first three repetitions
Description: The supplements were designed to be as similar as possible in volume, color, and taste, and included 5.0 g of phosphocreatine disodium salts plus 200 mg of blueberry extract in the supplements for the Phosphocreatine/Blueberry Group, 3.0 g of creatine monohydrate for the Creatine Group, and microcrystalline cellulose for the placebo group. The bulk powder mixtures were sieved through a 60-mesh sieve to ensure inform particle size and to get rid of the agglomerates. They were then blended for one hour using an Erweka V-mixer (Model AR 403, Erweka America Inc., Edison, NJ) prior to packaging. Homogeneity of mixing was visually confirmed with the coloring agents used. Blended powders were accurately weighed (mass±1%) into individual foil lined pouches using a calibrated balance (Model SX 410, Denver Instruments, Bohemia, NY) and heat sealed. Five quality control samples were randomly selected from the packaged batch throughout the packaging process to ensure even distribution of contents, verified by mass for all samples and for creatine content in non-placebo samples by HPLC analysis.
The study was implemented as a double-blind, placebo-controlled, parallel design study. The study included a familiarization visit with each of the participants, a pre-supplementation test visit, 28 days of daily supplementation, and a post-supplementation test visit. During the testing visits, the subjects performed the fatigue test of Thorstensson and Karlsson which consisted of 50 maximal, unilateral, concentric, isokinetic leg extensions of the left leg at 180°·s^−1.
After completion of the pre-supplementation test visit, the participants were randomly assigned to one of the three groups described above. The subjects were provided with 28 days of individually packaged packets of powder of their assigned supplement and were instructed to mix the contents of the packet with 8 oz of water and drink it immediately after mixing. The subjects were instructed to maintain their usual exercise and dietary habits throughout the study. Each subject completed a 3-day dietary recall form and a 7-day exercise recall form prior to the pre-supplementation testing visit and prior to the post-supplementation testing visit to determine if there were changes in total caloric and macronutrient intake as well as exercise time during the supplementation period.
Before and after the 28 day supplementation regimens, peak torque, average power and percent decline for peak torque and average power were assessed from a fatigue test consisting of 50 maximal, unilateral, isokinetic leg extensions at 180°·s^−1.
During both pre-supplementation and post-supplementation test visits, peak torque and average power were assessed during the fatigue tests. Peak torque and average power were defined as the mean values from the first three repetitions of the fatigue test. Average power was operationally defined in the as the time averaged, integrated area under the isokinetic torque curve. To calculate the average power, the voltage-time relationships were converted to the isokinetic torque curve by converting the voltage to torque in N·m based on a regression equation. Integration of the area under the torque curve was accomplished using a custom LabVIEW program (National Instrument, Austin, TX, USA) and the average power was then calculated by dividing the integrated area under the torque curve by the time for each isokinetic repetition.

[2] = system: CaCo2 cell model for intestinal barrier; assay: Diffusion of extract polyphenols/flavonoids through confluent CaCo2 monolayer in side by side diffusion cells; assay type: in vitro ADME; conditions: 10 mM alpha, beta or gamma cyclodextrin with blueberry polyphenol solution ~1 mg/ml
[3] = pre- to post-supplement, 28 days, monohydrate

Row | SMILES | Average Power ([1]; Post-Supplement (28 days)) | Peak Torque ([1]; Post-Supplement (28 days)) | Average Power ([1]; Pre-Supplement) | Peak Torque ([1]; Pre-Supplement) | Average Power Change (%) [1, 3] | Peak Torque Change (%) [1, 3] | effect of cyclodextrin on permeation of blueberry phenolics thru the CaCo2 membrane [2]
1 | CN(CC(=O)O)C(=N)N.O [Creatine Group, creatine monohydrate] | 159.78 ± 31.20 Watts | 111.97 ± 24.50 | 143.42 ± 33.84 Watts | 99.95 ± 22.50 | 10.22% and 10.22 ± 13.62% | 10.47% and 10.47 ± 11.03% | –
2 | OC[C@H]1O[C@@H]2O[C@H]3[C@H](O)[C@@H](O)[C@@H](O[C@H]4[C@H](O)[C@@H](O)[C@@H](O[C@H]5[C@H](O)[C@@H](O)[C@@H](O[C@H]6[C@H](O)[C@@H](O)[C@@H](O[C@H]7[C@H](O)[C@@H](O)[C@@H](O[C@H]8[C@H](O)[C@@H](O)[C@@H](O[C@H]1[C@H](O)[C@H]2O)O[C@@H]8CO)O[C@@H]7CO)O[C@@H]6CO)O[C@@H]5CO)O[C@@H]4CO)O[C@@H]3CO [beta cyclodextrin] | – | – | – | – | – | – | best effect on increasing the permeation
